Legend:
Assay in all cases: Test C preemergence, plant response rating
Format in all cases: in vivo
[1] = tested on: foxtail, giant (giant foxtail, Setaria faberii); details: Setaria faberi, pre-emergence, Preemergence
Text: (§1) Seeds of plant species selected from blackgrass (Alopecurus myosuroides), ryegrass, Italian (Italian ryegrass, Lolium multiflorum), wheat (winter wheat, Triticum aestivum), galium (catchweed bedstraw, Galium aparine), corn (Zea mays), crabgrass, large (large crabgrass, Digitaria sanguinalis), foxtail, giant (giant foxtail, Setaria faberii), johnsongrass (Sorghum halepense), lambsquarters (Chenopodium album), morningglory (Ipomoea coccinea), nutsedge, yellow (yellow nutsedge, Cyperus esculentus), pigweed (Amaranthus retroflexus), ragweed (common ragweed, Ambrosia elatior), soybean (Glycine max), barnyardgrass (Echinochloa crus-galli), oilseed rape (Brassica napus), pigweed, palmer (palmer pigweed, Amaranthus palmeri), waterhemp (common waterhemp, Amaranthus rudis), velvetleaf (Abutilon theophrasti), kochia (Kochia scoparia), surinam grass (Brachiaria decumbens), nightshade (eastern black nightshade, Solanum ptycanthum), wild poinsettia (Euphorbia heterophylla), windgrass (Apera spica-venti), and oat, wild (wild oat Avena fatua), were planted into a blend of loam soil and sand or a silt loam soil and treated preemergence with test chemicals formulated in a non-phytotoxic solvent mixture which included a surfactant.
(§2) At the same time, plants selected from these crop and weed species and also chickweed (common chickweed, Stellaria media), buckwheat, wild (wild buckwheat, Polygonum convolvulus), wild mustard (Sinapis arvensis), field poppy (Papaver rhoeas), field violet (Viola arvensis), geranium, cutleaf (cutleaf geranium, Geranium dissectum), Canada thistle (Cirsium arvense), and speedwell (bird's-eye speedwell, Veronica persica), were planted in pots containing Sunshine Redi-Earth® planting medium comprising spaghnum peat moss, vermiculite, starter nutrients and dolomitic limestone and treated with postemergence applications of test chemicals formulated in the same manner. Plants ranged in height from 2 to 18 cm (1- to 4-leaf stage) for postemergence treatments. Treated plants and controls were maintained in a greenhouse for 13 to 15 d, after which time all species were compared to controls and visually evaluated. Plant response ratings, summarized in Table C, are based on a scale of 0 to 100 where 0 is no effect and 100 is complete control. A dash (-) response means no test result.

[2] = tested on: oilseed rape (Brassica napus); details: Brassica napus, pre-emergence, Preemergence
Text: as §1, §2

[3] = tested on: morningglory (Ipomoea coccinea); details: Ipomoea, pre-emergence, Preemergence
Text: as §1, §2

soybean (Glycine max) = details: Glycine max, pre-emergence, Preemergence
Text: as §1, §2

[4] = tested on: lambsquarters (Chenopodium album); details: Chenopodium album, pre-emergence, Preemergence
Text: as §1, §2

[5] = tested on: velvetleaf (Abutilon theophrasti); details: Abutilon theophrasti, pre-emergence, Preemergence
Text: as §1, §2

[6] = tested on: ryegrass, Italian (Italian ryegrass, Lolium multiflorum); details: Lolium multiflorum, pre-emergence, Preemergence
Text: as §1, §2

[7] = tested on: wheat (winter wheat, Triticum aestivum); details: Triticum aestivum, pre-emergence, Preemergence
Text: as §1, §2

[8] = tested on: crabgrass, large (large crabgrass, Digitaria sanguinalis); details: Digitaria sanguinalis, pre-emergence, Preemergence
Text: as §1, §2

[9] = tested on: ragweed (common ragweed, Ambrosia elatior); details: Ambrosia artemisiifolia, pre-emergence, Preemergence
Text: as §1, §2

[10] = tested on: waterhemp (common waterhemp, Amaranthus rudis); details: Amaranthus tuberculatus, pre-emergence, Preemergence
Text: as §1, §2

[11] = tested on: blackgrass (Alopecurus myosuroides); details: Alopecurus myosuroides, pre-emergence, Preemergence
Text: as §1, §2

corn (Zea mays) = details: Zea mays, pre-emergence, Preemergence
Text: as §1, §2

[12] = tested on: nutsedge, yellow (yellow nutsedge, Cyperus esculentus); details: Cyperus, pre-emergence, Preemergence
Text: as §1, §2

CC(CC(F)(F)F)OC(=O)c1c(Br)cccc1Oc1ncc(Cl)cn1 (centres unmarked) [Compound 16, 3,3,3-trifluoro-1-methylpropyl 2-bromo-6-[(5-chloro-2-pyrimidinyl)oxy]benzoate]
pest or weed control at 62 g/ha ([1]; 62 g ai/ha, scale of 0 to 100): 90%
pest or weed control at 125 g/ha ([1]; 125 g ai/ha, scale of 0 to 100): 100%
pest or weed control at 16 g/ha ([1]; 16 g ai/ha, scale 0 to 100): 5%
pest or weed control at 31 g/ha ([1]; 31 g ai/ha, scale 0 to 100): 25%
plant injury at 125 g/ha ([2]; 125 g ai/ha, scale of 0 to 100): 100%
plant injury at 16 g/ha ([2]; 16 g ai/ha, scale 0 to 100): 0%
plant injury at 31 g/ha ([2]; 31 g ai/ha, scale 0 to 100): 50%
plant injury at 62 g/ha ([2]; 62 g ai/ha, scale 0 to 100): 60%
pest or weed control at 125 g/ha ([3]; 125 g ai/ha, scale of 0 to 100): 25%
pest or weed control at 16 g/ha ([3]; 16 g ai/ha, scale 0 to 100): 10%
pest or weed control at 31 g/ha ([3]; 31 g ai/ha, scale 0 to 100): 0%
pest or weed control at 62 g/ha ([3]; 62 g ai/ha, scale 0 to 100): 25%
plant injury at 125 g/ha (soybean (Glycine max); 125 g ai/ha, scale of 0 to 100): 5%
plant injury at 16 g/ha (soybean (Glycine max); 16 g ai/ha, scale 0 to 100): 0%
plant injury at 31 g/ha (soybean (Glycine max); 31 g ai/ha, scale 0 to 100): 0%
plant injury at 62 g/ha (soybean (Glycine max); 62 g ai/ha, scale 0 to 100): 0%
pest or weed control at 125 g/ha ([4]; 125 g ai/ha, scale of 0 to 100): 50%
pest or weed control at 16 g/ha ([4]; 16 g ai/ha, scale 0 to 100): 0%
pest or weed control at 31 g/ha ([4]; 31 g ai/ha, scale 0 to 100): 20%
pest or weed control at 62 g/ha ([4]; 62 g ai/ha, scale 0 to 100): 20%
pest or weed control at 125 g/ha ([5]; 125 g ai/ha, scale of 0 to 100): 75%
pest or weed control at 16 g/ha ([5]; 16 g ai/ha, scale 0 to 100): 0%
pest or weed control at 31 g/ha ([5]; 31 g ai/ha, scale 0 to 100): 5%
pest or weed control at 62 g/ha ([5]; 62 g ai/ha, scale 0 to 100): 50%
pest or weed control at 125 g/ha ([6]; 125 g ai/ha, scale of 0 to 100): 5%
pest or weed control at 16 g/ha ([6]; 16 g ai/ha, scale 0 to 100): 0%
pest or weed control at 31 g/ha ([6]; 31 g ai/ha, scale 0 to 100): 0%
pest or weed control at 62 g/ha ([6]; 62 g ai/ha, scale 0 to 100): 5%
plant injury at 125 g/ha ([7]; 125 g ai/ha, scale of 0 to 100): 0%
plant injury at 16 g/ha ([7]; 16 g ai/ha, scale 0 to 100): 0%
plant injury at 31 g/ha ([7]; 31 g ai/ha, scale 0 to 100): 0%
plant injury at 62 g/ha ([7]; 62 g ai/ha, scale 0 to 100): 0%
pest or weed control at 62 g/ha ([8]; 62 g ai/ha, scale of 0 to 100): 90%
pest or weed control at 125 g/ha ([8]; 125 g ai/ha, scale of 0 to 100): 100%
pest or weed control at 16 g/ha ([8]; 16 g ai/ha, scale 0 to 100): 5%
pest or weed control at 31 g/ha ([8]; 31 g ai/ha, scale 0 to 100): 75%
pest or weed control at 125 g/ha ([9]; 125 g ai/ha, scale of 0 to 100): 0%
pest or weed control at 16 g/ha ([9]; 16 g ai/ha, scale 0 to 100): 0%
pest or weed control at 31 g/ha ([9]; 31 g ai/ha, scale 0 to 100): 0%
pest or weed control at 62 g/ha ([9]; 62 g ai/ha, scale 0 to 100): 5%
pest or weed control at 125 g/ha ([10]; 125 g ai/ha, scale of 0 to 100): 100%
pest or weed control at 16 g/ha ([10]; 16 g ai/ha, scale 0 to 100): 10%
pest or weed control at 31 g/ha ([10]; 31 g ai/ha, scale 0 to 100): 60%
pest or weed control at 62 g/ha ([10]; 62 g ai/ha, scale 0 to 100): 85%
pest or weed control at 62 g/ha ([11]; 62 g ai/ha, scale of 0 to 100): 5%
pest or weed control at 125 g/ha ([11]; 125 g ai/ha, scale of 0 to 100): 10%
pest or weed control at 16 g/ha ([11]; 16 g ai/ha, scale 0 to 100): 0%
pest or weed control at 31 g/ha ([11]; 31 g ai/ha, scale 0 to 100): 0%
Corn plant response rating (crop injury, 0 = no effect, 100 = complete kill) at 62 g/ha (corn (Zea mays); 62 g ai/ha, scale of 0 to 100): 0%
Corn plant response rating (crop injury, 0 = no effect, 100 = complete kill) at 125 g/ha (corn (Zea mays); 125 g ai/ha, scale of 0 to 100): 10%
Corn plant response rating (crop injury, 0 = no effect, 100 = complete kill) at 16 g/ha (corn (Zea mays); 16 g ai/ha, scale 0 to 100): 0%
Corn plant response rating (crop injury, 0 = no effect, 100 = complete kill) at 31 g/ha (corn (Zea mays); 31 g ai/ha, scale 0 to 100): 0%
pest or weed control at 125 g/ha ([12]; 125 g ai/ha, scale of 0 to 100): 0%
pest or weed control at 16 g/ha ([12]; 16 g ai/ha, scale 0 to 100): 0%
pest or weed control at 31 g/ha ([12]; 31 g ai/ha, scale 0 to 100): 0%
pest or weed control at 62 g/ha ([12]; 62 g ai/ha, scale 0 to 100): 0%
